From ChEMBL document CHEMBL1135301, “Imidazole-based ligands of the Src SH2 protein” (Bioorg Med Chem Lett, 2002)
pIC50: −log10 of the molar value.

What follows are compounds tested against Proto-oncogene tyrosine-protein kinase Src (Homo sapiens, UniProt P12931) (assay: Binding affinity for p60 c-Src SH2 domain by scintillation proximity assay (SPA)).
Chain of Proto-oncogene tyrosine-protein kinase Src (P12931 2-536 limits assumed): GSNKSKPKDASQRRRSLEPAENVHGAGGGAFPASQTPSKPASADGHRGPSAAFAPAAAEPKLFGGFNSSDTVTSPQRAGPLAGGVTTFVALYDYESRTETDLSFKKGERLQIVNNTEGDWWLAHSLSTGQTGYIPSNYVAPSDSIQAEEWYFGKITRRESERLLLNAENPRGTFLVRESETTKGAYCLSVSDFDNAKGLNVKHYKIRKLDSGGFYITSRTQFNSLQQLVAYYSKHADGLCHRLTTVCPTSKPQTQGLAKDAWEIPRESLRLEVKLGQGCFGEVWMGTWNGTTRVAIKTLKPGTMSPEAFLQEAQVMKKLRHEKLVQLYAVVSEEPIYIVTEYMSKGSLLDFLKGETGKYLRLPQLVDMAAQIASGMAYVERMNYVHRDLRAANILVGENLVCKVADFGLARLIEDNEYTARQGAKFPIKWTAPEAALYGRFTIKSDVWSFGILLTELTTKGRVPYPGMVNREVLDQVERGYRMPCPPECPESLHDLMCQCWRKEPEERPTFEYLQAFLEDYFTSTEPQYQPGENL

Q: How did the pIC50 turn out when `CC(=O)N[C@@H](Cc1ccc(C(F)(F)P(=O)(O)O)cc1)C(=O)NC(C)c1nc(SCC2CCCCC2)c(C(N)=O)n1C` (stereo partly drawn) was run?
A: The pIC50 was 5.28.

Q: With `CC(=O)N[C@@H](Cc1ccc(OP(=O)(O)O)cc1)C(=O)NC(C)c1nc(SCC2CCCCC2)c(C(N)=O)n1C` (stereo partly drawn) as the compound, how does the pIC50 read?
A: Its pIC50 is 5.07.

Q: `CCOC(=O)c1c(SCC2CCCCC2)nc(C(C)NC(=O)[C@H](Cc2ccc(OP(=O)(O)O)cc2)NC(C)=O)n1C` (stereo partly drawn) was tested. Which pIC50 did it give?
A: Its pIC50 is 5.16.
